Laboratory results taken from patent US9737493B2, “Compositions and methods for modulating DNMT1 inhibitor activity” (University of Louisville Research Foundation, Inc., priority 2012, dated 2017).

Key:
Format in all cases: cell-based, human
A549 cells [1] = experiment: DNA content (PI) cell cycle analysis
Experimental: (§1) FIG. 6: DNA Content Analysis for Malignant Cells treated with XB05. (A) U937 and A549 cells were treated with XB05 at the concentrations indicated for 24, 48 and 72 h. At each time point, the cells were harvested and subjected to propidium iodide (PI) staining for DNA content analysis as described in Methods. (B) Tables showing percentage of cycling cells (non-SubG1) in various phases of the cell cycle after treatment with vehicle or XB05 as indicated in FIG. 6A.
(§2) Flow Cytometric Assays. Analyses were performed using a FACScalibur flow cytometer (BD Biosciences, Mountain View, Calif.) and FlowJo software (Tree Star, Inc., Ashland, Oreg.). Cells were treated as indicated in the figures and in the Brief Description of the Drawings. Cells were harvested by using TrypLE Cell Dissociation Reagent (Life Technologies). For cell death analyses, cells (adherent and detached cells) were stained with annexin-V-FITC and propidium iodide (PI) using the Apoptosis Detection Kit (BD Biosciences, San Jose, Calif.), according to the manufacturer's instructions. For cell-cycle distribution, cells were fixed, and stained with PI using the Cycle Test Plus kit (Becton Dickinson, Franklin Lakes, N.J.). […] Cells were then washed twice with PBS, re-suspended at a density of 1×10^6 cells/mL in PBS and analyzed by flow cytometry.

U937 cells [2] = experiment: DNA content (PI) cell cycle analysis; details: U937, 24 h
Experimental: as §1, §2

A549 cells [3] = experiment: Flow cytometric detection of γ-H2AX; details: A549, 2 μM, 24 h
Experimental: (§3) FIG. 11: XB05 Induces DNA Damage in Malignant Cells. (A) Alkaline comet assays for detection of DNA damage for cells treated as indicated for 72 h. TBHP was a positive control for oxidative DNA damage. Decreased DNA fluorescence in nucleoid comet heads (arrows) and increased smearing of DNA into comet tails (asterisks) is indicated. Scale bar, 400 μm. Data shown are representative of at least two individual experiments for each cell line. (B) Western blot analysis for γ-H2AX and GAPDH (loading control) in whole cell extracts from cells treated with vehicle, UV irradiation (800 μJ, positive control for DSBs), or XB05 (1 μM for U937, 2 μM for A549) after 24 h. Images shown are representative of three individual experiments in each cell line. (C) Flow cytometric detection of γ-H2AX in cells treated as described in part B. Bar graph represents mean+/−SEM for 3 individual experiments in each cell line. Statistical comparison indicated significant differences between vehicle and XB05-treated groups in both cell lines (*p≦0.05).
(§4) Flow Cytometric Assays. Analyses were performed using a FACScalibur flow cytometer (BD Biosciences, Mountain View, Calif.) and FlowJo software (Tree Star, Inc., Ashland, Oreg.). […] Cells were then washed twice with PBS, re-suspended at a density of 1×10^6 cells/mL in PBS and analyzed by flow cytometry.

U937 cells [4] = experiment: Flow cytometric detection of γ-H2AX; details: U937, 1 μM, 24 h
Experimental: as §3, §4

U937 cells [5] = experiment: Trypan blue exclusion assay; details: U937, 1 μM, 72 h
Experimental: (§5) FIG. 3: XB05 Induces Apoptotic and Nonapoptotic Cell Death in Malignant Cell Lines. (A) Trypan blue exclusion assay for three human cell lines following treatment with XB05 for 72 h at the concentrations indicated. Data points represent the mean+/−SEM for three independent experiments. (B) Representative phase contrast microscopy images of cells treated with vehicle (72 h), XB05 (72 h with 1 μM for U937 and Hs27, or 2 μM for A549), or 6 μg/mL camptothecin (U937 for 6 h, A549 and Hs27 for 48 h). Cells undergoing apoptotic (black arrows) or non-apoptotic (white arrows) cell death are indicated. (C) Whole cell extracts from cells treated with vehicle, camptothecin, or XB05, as described in part B were western blotted for biochemical markers of apoptosis and GAPDH (loading control). Apoptosis is indicated by cleavage of full-length PARP-1 (116 kDa) to an 89 kDa fragment, and by appearance of bands (17 kDa, 19 kDa) recognized by an antibody specific to cleaved (activated) forms of caspase-3. (D) Flow cytometric analysis of annexin V-FITC/propidium Iodide (PI) staining for malignant cells treated with vehicle, camptothecin or XB05 as described in part B, in the presence or absence of the pan-caspase inhibitor Z-VAD-fmk (100 μM).
(§6) After 72 h, cells were trypsinized (in the case of adherent cells), stained with trypan blue solution (0.4%) (BioRad, Hercules Calif.) and cell number and percent viability determined on a TC10 automated cell counter (BioRad) using triplicate measurements for each sample. Phase contrast microscopy images were obtained on an EVOSfI digital inverted microscope (Advanced Microscopy Group, Bothell, Wash.).

Hs27 cells = experiment: Trypan blue exclusion assay; details: Hs27, 72 h
Experimental: as §5, §6

SMILES: CCCCCC(O)C#CC(F)(F)Br (stereo not drawn) [XB05]
- proportion of cells in G2/M phase (A549 cells [1]): very modest increase in the G2/M fraction
- proportion of cells in G2/M phase (U937 cells [2]): pronounced increase in the proportion of cells in G2/M phase
- increase in γ-H2AX staining compared to vehicle-treated controls (A549 cells [3]): 2.9 fold
- increase in γ-H2AX staining compared to vehicle-treated controls (U937 cells [4]): 4.5 fold
- cell death (trypan blue exclusion) (U937 cells [5]): robust cell death
- cell death (trypan blue exclusion) (Hs27 cells): lowest levels of cell death
